Data as given in patent US20070173488A1, “Pyrazolothiazole Protein Kinase Modulators” (SGX Pharmaceuticals, Inc., priority 2005, published 2007).

How the values were obtained:
AurA = target: T1, AurA (Homo sapiens, UniProt O14965); experiment: AurA Luminescence-based Enzyme Assay (Kinase-Glo); type: biochemical
T1 construct: made in house; host or cells: Sf9 insect cells
T1 sequence (O14965 1-403): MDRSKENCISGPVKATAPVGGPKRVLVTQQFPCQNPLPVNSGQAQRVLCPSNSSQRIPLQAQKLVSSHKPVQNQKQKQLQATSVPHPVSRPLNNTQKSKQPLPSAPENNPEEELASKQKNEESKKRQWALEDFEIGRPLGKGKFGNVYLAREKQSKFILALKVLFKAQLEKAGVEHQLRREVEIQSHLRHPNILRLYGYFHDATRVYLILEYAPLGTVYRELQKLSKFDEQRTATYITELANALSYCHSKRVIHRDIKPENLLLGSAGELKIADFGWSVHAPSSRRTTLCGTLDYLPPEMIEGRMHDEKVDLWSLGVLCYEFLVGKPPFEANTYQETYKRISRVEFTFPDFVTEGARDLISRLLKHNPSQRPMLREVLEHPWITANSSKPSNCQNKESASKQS
Text: Homogeneous luminescence-based inhibitor screening assays were developed for c-Abl, MET, AurA, and PDK1 kinases (among others). Each of these assays made use of an ATP depletion assay (Kinase-Glo™, Promega Corporation, Madison, Wis.) to quantitate kinase activity. The Kinase-Glo™ format uses a thermostable luciferase to generate luminescent signal from ATP remaining in solution following the kinase reaction. The luminescent signal is inversely correlated with the amount of kinase activity.
Dose response was analyzed using the equation: y=min+{(max−min)/(1 +10^[compound]-logIC50)}, where y is the observed initial slope, max=the slope in the absence of inhibitor, min=the slope at infinite inhibitor, and the IC50 is the [compound] that corresponds to ½ the total observed amplitude (Amplitude=max−min).
The Sf9 insect cell pellets (˜18 g) produced from 6 L of cultured cells expressing human Aurora-2 were resuspended in 50 mM Na Phosphate pH 8.0, 500 mM NaCl, 10% glycerol, 0.2% n-octyl-β-D-glucopyranoside (BOG) and 3 mM β-Mercaptoethanol (BME). One tablet of Roche Complete, EDTA-free protease inhibitor cocktail (Cat# 1873580) and 85 units Benzonase (Novagen Cat#70746-3)) were added per 1 L of original culture. Pellets were resuspended in approximately 50 ml per 1 L of original culture and were then sonicated on ice with two 30-45 sec bursts (100% duty cycle). Debris was removed by centrifugation and the supernatant was passed through a 0.8 μm syringe filter before being loaded onto a 5 ml Ni^2+ HiTrap column (Pharmacia). The column was washed with 6 column volumes of 50 mM Na Phosphate pH 8.0, 500 mM NaCl, 10% glycerol, 3 mM BME. The protein was eluted using a linear gradient of the same buffer containing 500 mM Imidazole. The eluant (24 ml) was cleaved overnight at 4° C. in a buffer containing 50 mM Na Phosphate pH 8.0, 500 mM NaCl, 10% glycerol, 3 mM BME and 10,000 units of TEV (Invitrogen Cat#10127-017). The protein was passed over a second nickel affinity column as described above; the flow-through was collected. The cleaved protein fractions were combined and concentrated using spin concentrators. Further purification was done by gel filtration chromatography on a S75 sizing column in 50 mM Na Phosphate (pH 8.0), 250mM NaCl, 1 mM EDTA, 0.1 mM AMP-PNP or ATP buffer, and 5 mM DTT. The cleanest fractions were combined and concentrated to approximately 8-11 mg/ml, and were either flash frozen in liquid nitrogen in 120 μl aliquots and stored at −80° C., or stored at 4° C.
AurA Luminescence-based Enzyme Assay
Materials: Kemptide peptide substrate=LRRASLG (Biopeptide, San Diego, Calif.), ATP (Sigma Cat#A-3377, FW=551), HEPES buffer, pH 7.5, 10% Brij 35 (Calbiochem Cat# 203728), MgCl2, Staurosporine (Streptomyces sp. Sigma Cat#85660-1MG), white Costar 384-well flat -bottom plate (VWR Cat#29444-088), Autophosphorylated AurA kinase (see below), Kinase-Glo™ (Promega Cat#V6712).
Stock Solutions: 10 mM Kemptide peptide (7.72 mg/ml in water), stored at −20° C.; 100 mM HEPES buffer +0.015% Brij 35, pH 7.5 (5 ml 1M HEPES stock +75 μL 10% Brij 35+45 ml miliQH2O); 10 mM ATP (5.51 mg/ml in dH2O) stored at −20° C. (diluted 50 μl into total of 10 ml miliQH2O daily=50 μM ATP working stock); 100 mM MgCl2; 200 μM Staurosporine, 2× Kinase-Glo™ reagent (made fresh or stored at −20° C.).
AurA Autophosphorylation Reaction: ATP and MgCl2 were added to 1-5 mg/ml AurA at final concentrations of 10 mM and 100 mM, respectively. The autophosphorylation reaction was incubated at 21° C. for 2-3 h. The reaction was stopped by the addition of EDTA to a final concentration of 50 mM, and samples were flash frozen with liquid N2 and stored at −80° C.
Standard Assay Setup for 384-well format (20 μl kinase reaction, 40 μL detection reaction): 10 mM MgCl2; 0.2mM Kemptide peptide; 1 μl test compound (in DMSO); 0.3 μg/ml Autophosphorylated AurA kinase; 10 μM ATP; 100 mM HEPES+0.015% Brij buffer. Positive controls contained DMSO with no test compound. […]

T315I Ba/F3 = target: T2, T315I Ba/F3 (Homo sapiens, UniProt P00519, T315I, cells depend on it, form not given); experiment: 96-well XTT cell survival assay (Ba/F3 cells); type: cell-based; conditions: 72 hours, read-out: T315I Ba/F3 XTT IC50
T2 construct: The candidate is BCR (P11274) N-terminal part, as in Bcr-Abl p210 or p185
Procedure: Ba/F3 cells were maintained in RPMI 1640 supplemented with 10% FBS, penicillin/streptomycin and 5 ng/ml recombinant mouse IL-3.
Compounds were tested in the following assays in duplicate.
96-well XTT assay (Ba/F3 cells): Cells were grown in growth media containing various concentrations of compounds (duplicates) on a 96-well plate for 72 hours at 37° C. The starting cell number was 5000-8000 cells per well and volume was 120 μl. At the end of the 72-hour incubation, 40 μl of XTT labeling mixture (50:1 solution of sodium 3′-[1-(phenylamino-carbonyl)-3,4-tetrazolium]-bis (4-methoxy-6-nitro) benzene sulfonic acid hydrate and Electron-coupling reagent: PMS (N-methyl dibenzopyrazine methyl sulfate) were added to each well of the plate. After an additional 2-6 hours of incubation at 37° C., the absorbance reading at 405 nm with background correction at 650 nm was measured with a spectrophotometer.

Compound	IC50 (AurA)	GI50 (T315I Ba/F3)
O=C(Nc1cc[nH]n1)Nc1nc2[nH]nc(-n3cncc3-c3ccccc3Cl)c2s1 [1-{3-[5-(2-Chloro-phenyl)-imidazol-1-yl]-1H-pyrazolo[3,4-d]thiazol-5-yl}-3-(1H-pyrazol-3-yl)-urea]	1 to 10 µM	–
O=C(Nc1nc2[nH]nc(-n3cncc3-c3ccccc3)c2s1)C1CC1 [Cyclopropanecarboxylic acid [3-(5-phenyl-imidazol-1-yl)-1H-pyrazolo[3,4-d]thiazol-5-yl]-amide]	1 to 10 µM	0.1 to 1 µM
O=C(Nc1nc2[nH]nc(-n3cncc3-c3cccc(F)c3F)c2s1)C1CC1 [Cyclopropanecarboxylic acid {3-[5-(2,3-difluoro-phenyl)-imidazol-1-yl]-1H-pyrazolo[3,4-d]thiazol-5-yl}-amide]	1 to 10 µM	0.1 to 1 µM
COc1ccc2nc(Cl)c(-c3cncn3-c3n[nH]c4nc(NC(=O)C5CC5)sc34)cc2c1 [Cyclopropanecarboxylic acid {3-[5-(2-chloro-6-methoxy-quinolin-3-yl)-imidazol-1-yl]-1H-pyrazolo[3,4-d]thiazol-5-yl}-amide]	> 10 µM	–
O=C(Nc1nc2[nH]nc(-n3cncc3-c3ccccc3Cl)c2s1)C1CC1 [Cyclopropanecarboxylic acid {3-[5-(2-chloro-phenyl)-imidazol-1-yl]-1H-pyrazolo[3,4-d]thiazol-5-yl}-amide]	< 0.1 µM	0.1 to 1 µM
NC(=O)COc1ccc(-c2cncn2-c2n[nH]c3nc(NC(=O)C4CC4)sc23)c(Cl)c1 [Cyclopropanecarboxylic acid {3-[5-(4-carbamoylmethoxy-2-chloro-phenyl)-imidazol-1-yl]-1H-pyrazolo[3,4-d]thiazol-5-yl}-amide]	0.1 to 1 µM	–
CS(=O)(=O)c1ccc(F)cc1-c1cncn1-c1n[nH]c2nc(NC(=O)C3CC3)sc12 [Cyclopropanecarboxylic acid {3-[5-(5-fluoro-2-methanesulfonyl-phenyl)-imidazol-1-yl]-1H-pyrazolo[3,4-d]thiazol-5-yl}-amide]	0.1 to 1 µM	–

The next lines start with results.

IC50 (AurA)	Compound	GI50 (T315I Ba/F3)
1 to 10 µM	O=C(Nc1nc2[nH]nc(-n3cncc3-c3ccc4ccccc4c3)c2s1)C1CC1 [Cyclopropanecarboxylic acid [3-(5-naphthalen-2-yl-imidazol-1-yl)-1H-pyrazolo[3,4-d]thiazol-5-yl]-amide]	–
> 10 µM	O=C(Nc1nc2[nH]nc(-n3cncc3-c3ccccn3)c2s1)C1CC1 [Cyclopropanecarboxylic acid [3-(5-pyridin-2-yl-imidazol-1-yl)-1H-pyrazolo[3,4-d]thiazol-5-yl]-amide]	1 to 10 µM
0.1 to 1 µM	O=C(Nc1nc2[nH]nc(-n3cncc3-c3cc(Cl)cc(Cl)c3Cl)c2s1)C1CC1 [Cyclopropanecarboxylic acid {3-[5-(2,3,5-trichloro-phenyl)-imidazol-1-yl]-1H-pyrazolo[3,4-d]thiazol-5-yl}-amide]	–
< 0.1 µM	O=C(Nc1nc2[nH]nc(-n3cncc3-c3c(Cl)ccc(Cl)c3Cl)c2s1)C1CC1 [Cyclopropanecarboxylic acid {3-[5-(2,3,6-trichloro-phenyl)-imidazol-1-yl]-1H-pyrazolo[3,4-d]thiazol-5-yl}-amide]	0.1 to 1 µM
< 0.1 µM	O=C(Nc1nc2[nH]nc(-n3cncc3-c3c(Cl)cccc3Cl)c2s1)C1CC1 [Cyclopropanecarboxylic acid {3-[5-(2,6-dichloro-phenyl)-imidazol-1-yl]-1H-pyrazolo[3,4-d]thiazol-5-yl}-amide]	0.1 to 1 µM
